Laboratory results: publication PMC4103530, “Antimicrobial Activity of Pantothenol against Staphylococci Possessing a Prokaryotic Type II Pantothenate Kinase” (Microbes and Environments, 2014)

Columns and labels:
[1] = biological target: T1, EcCoaA (prokaryotic type I pantothenate kinase) (Escherichia coli, UniProt P0A6I3); assay: radiometric pantothenate kinase assay with D-[…]pantothenate; type: biochemical
T1 construct: gene coaA; recombinant from pET15b/bPanK in E. coli BL21 (DE3), nickel-resin purified, His-tag
T1 sequence (P0A6I3 1-316): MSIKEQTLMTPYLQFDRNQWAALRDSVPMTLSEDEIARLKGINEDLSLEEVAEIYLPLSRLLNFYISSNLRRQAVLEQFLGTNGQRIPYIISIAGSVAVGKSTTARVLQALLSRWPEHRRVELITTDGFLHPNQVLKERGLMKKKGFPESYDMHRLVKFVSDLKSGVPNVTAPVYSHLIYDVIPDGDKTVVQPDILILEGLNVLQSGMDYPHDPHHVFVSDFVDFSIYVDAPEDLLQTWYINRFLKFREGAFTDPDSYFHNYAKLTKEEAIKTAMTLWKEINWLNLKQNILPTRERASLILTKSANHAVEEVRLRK

[2] = biological target: T2, SaCoaA (prokaryotic type II pantothenate kinase) (Staphylococcus aureus, UniProt Q8NVG0); assay: as above; type: biochemical
T2 construct: gene coaW; recombinant from pET-28a(+) (pET-Sa-coaA) in E. coli BL21 (DE3), nickel-resin purified, His-tag
T2 sequence (Q8NVG0 1-267): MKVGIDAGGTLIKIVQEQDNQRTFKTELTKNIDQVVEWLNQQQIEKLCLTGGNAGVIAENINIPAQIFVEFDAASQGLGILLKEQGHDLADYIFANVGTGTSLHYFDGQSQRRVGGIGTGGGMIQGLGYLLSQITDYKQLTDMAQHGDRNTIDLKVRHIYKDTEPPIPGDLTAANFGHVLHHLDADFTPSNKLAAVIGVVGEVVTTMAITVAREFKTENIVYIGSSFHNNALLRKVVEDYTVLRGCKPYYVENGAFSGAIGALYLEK

Structure (SMILES): CC(C)(CO)[C@@H](O)C(=O)NCCCO [d-pantothenol]
- IC50 [1]: 6.06 mM
- IC50 [2]: 1.68 mM
